The values that follow come from US5342840A, “Cyclopropane derivative” (Ajinomoto Co., Inc., priority 1991, dated 1994).

For one assay, the system named is HSV-2 (strain 186). The experiment in a line: Anti-herpes activity, plaque-reduction assay in Vero cells, HSV-2 (strain 186). The assay is classed as cell-based. The settings on record: Human alphaherpesvirus 2, 168 h; HSV-2 strain 186, Vero cells, 7 days at 37° C.; read-out: ID50 HSV-2 (concentration of compound causing 50% inhibition of plaque formation). As for the experimental part:
(§1) Anti-herpes activity was measured in a plaque-reduction assay (Lopez, C. et al., J. Antimicrob. Agents Chemother., 17, 803 (1980). Confluent monolayers of Vero cells in 6-well plates were infected with 100 plaque forming units of either HSV-1 (strain KOS) or HSV-2 (strain 186). The infected monolayers were incubated at 37° C. for 1 hour and then overlaid with maintenance medium containing 1% agarose and various concentrations of test compounds. The monolayers were incubated for a further 7 days at 37° C., after which the cells were fixed and stained, the plaques were counted, and the concentration of compound causing 50% inhibition of plaque formation was calculated.
For orientation: Plaques are areas of infected cells; plaque reduction assays count them against a control.

The next assay relates to HSV-1 (strain KOS). Put plainly: Anti-herpes activity, plaque-reduction assay in Vero cells, HSV-1 (strain KOS). The assay is classed as cell-based. The following applies: Human alphaherpesvirus 1, 168 h, 7 days at 37° C., read-out: ID50 HSV-1 (concentration of compound causing 50% inhibition of plaque formation). As for the experimental part:
as §1

Values after ≈ are worked out from the molar mass of the structure shown.

As to `Nc1nc2c(ncn2C[C@]2(CO)C[C@H]2CO)c(=O)[nH]1` (relative stereo), the IC50 was 0.42 µg/mL (≈ 1.58 µM) with HSV-2 (strain 186) and 0.046 µg/mL (≈ 0.173 µM) in the assay on HSV-1 (strain KOS). In the case of `Nc1nc2c(ncn2COCCO)c(=O)[nH]1` [Acyclovir, reference compound], the IC50 came to 0.4 µg/mL (≈ 1.78 µM) in the assay on HSV-2 (strain 186) and 0.57 µg/mL (≈ 2.53 µM) with HSV-1 (strain KOS). `Nc1nc(Cl)c2ncn(CC3(CO)CC3CO)c2n1` (stereo not shown): the IC50 with HSV-1 (strain KOS) stood at 34 µg/mL (≈ 120 µM). Still for that read-out and setting: with `Nc1nc2c(ncn2C[C@]2(CO)C[C@@H]2CO)c(=O)[nH]1` (relative stereo) the figure was 10.4 µg/mL (≈ 39.2 µM). Turning to `Nc1nc2c(ncn2C[C@]2(CO)C[C@H]2CO)c(=O)[nH]1` [Example 20, (-)-9-[1'S,2'R-bis(hydroxymethyl)cyclopropan-1'yl]methylguanine], the IC50 in the assay on HSV-2 (strain 186) was 0.24 µg/mL (≈ 0.905 µM); in the assay on HSV-1 (strain KOS) it was 0.023 µg/mL (≈ 0.0867 µM). As for `Nc1ncnc2c1ncn2CC1(CO)CC1CO` (stereo not shown), the IC50 in the assay with HSV-1 (strain KOS) was found to be 47 µg/mL (≈ 189 µM). Consider `Nc1ccn(CC2(CO)CC2CO)c(=O)n1` (stereo not shown), for which the IC50 with HSV-1 (strain KOS) came out at 120 µg/mL (≈ 533 µM).
